Test results published in US20240173344A1, “USE OF GABAA RECEPTOR AS TARGET IN PREPARATION OR SCREENING OF DRUG FOR LOWERING BLOOD LIPID LEVEL, TREATING OBESITY, AND/OR IMPROVING METABOLISM” (SHANGHAI INSTITUTE OF ENDOCRINE AND METABOLIC DISEASES, priority 2022, published 2024).
Where “and” joins values, the source holds several entries; their conditions need not be identical. Equal values may be shown once.

Columns and labels:
obese mouse model = assay: Intraperitoneal puerarin derivatives in obese mouse model: body weight, blood lipid, jejunal TG; assay type: in vivo, mice; conditions: for Blood lipid level / Jejunal TG level: individual obese mice; for Effect on TG (lipid) absorption in small intestine / Effect on blood lipid level / Effect on body weight of the obese mouse: intraperitoneal injection, result in words; for Body weight change percentage, Mean: puerarin derivative-1; for Body weight change percentage: intraperitoneal puerarin derivative-1
From the text: (§1) In the present disclosure, the mice were fed with a high-fat diet in which a mass percentage of fat was 60% for 12 weeks, and when a body weight reached 35 g or more, animal models of alimentary obesity were successfully constructed. At a formal stage of the experiment (starting on day 0 in FIG. 1A, FIG. 3A, FIG. 6A, and FIG. 7A), the mice were raised in single cages, during which a daily food intake of each mouse model was accurately recorded, the feces was collected before and after drug intervention, and a daily body weight curve was recorded.
A method for determining TG in a sample was as follows: 20 mg to 30 mg of a sample was first weighed, a 5% NP40-containing lysis buffer was added, and a resulting mixture was homogenated and incubated in a metal bath at 95° C. for 5 min, which was repeated twice. A resulting homogenate was cooled to room temperature and then centrifuged at 15,000 rpm for 2 min to 3 min, and a resulting supernatant was pipetted for determination. A Biovision kit was used to determine TG. 2 μl of the supernatant was added to each well, and after a chromogenic reaction was completed, a value of each well was determined by a microplate reader. TG in the small intestinal tissue was quantified through a standard protein concentration; and a total amount of lipids excreted with the feces was calculated based on a measured value of the feces sample and a total mass of the sample at 24 h.

neurons in the DMV = assay: Chemogenetic (DREADDs) inhibition of DMV neurons by CNO in obese mice: body weight, blood lipid, fecal TG, jejunal TG; assay type: in vivo, C57BL/6J mice; conditions: single mice and mean; for Blood lipid level: Inhibition group (hM4D(Gi) virus + CNO i.p. 7 d)
From the text: as §1
The chemogenetic approach designer receptors exclusively activated by designer drugs (DREADDs) is a research method that controls neuronal excitability in a specific brain region in an animal model, where a downstream signaling pathway of a specific exogenous ligand clozapine N-oxide (CNO) is activated through an adeno-associated virus (AAV) modified by a G protein-coupled receptor (GPCR) to cause a change in neuronal excitability. […]
Four weeks after recovery from surgery, mice in the chemogenetic inhibition group and the control group each were intraperitoneally injected with CNO (Catalog No. BML-NS105, Enzo Life Sciences, USA) at a dose of 1.0 mg/kg BW every day to inhibit the neuronal activity of the DMV, and the daily food intake and body weight were measured and the feces was collected for the mice. The mice were sacrificed after being continuously injected with CNO for 7 d to inhibit the DMV, mouse tissue samples were collected, and physiological and metabolic indexes were detected and analyzed.
A method for determining TG in a sample was as follows: 20 mg to 30 mg of a sample was first weighed, a 5% NP40-containing lysis buffer was added, and a resulting mixture was homogenated and incubated in a metal bath at 95° C. for 5 min, which was repeated twice. […] 2 μl of the supernatant was added to each well, and after a chromogenic reaction was completed, a value of each well was determined by a microplate reader. […]

[1] = group mean of 8 mice, puerarin derivative-3 group
[2] = group mean of 10 mice, puerarin derivative-2 group

With `OCC1OC2c3c(ccc4c3OC=C(c3ccc(O)cc3)C4O)OC2C(O)C1O` (centres unmarked) [puerarin derivative-3] the “Body weight change curve, Mean” value (obese mouse model; Day 0, group mean of 8 mice, puerarin derivative-3) was 0.00%, the “Body weight change curve” value (obese mouse model; Day 0, individual obese mice, puerarin derivative-3) was 0.00% and the “Body weight change curve, Mean” value (obese mouse model; Day 1, group mean of 8 mice, puerarin derivative-3) was −2.37%. For the same molecule, the “Body weight change curve” value (obese mouse model; Day 1, individual obese mice, puerarin derivative-3) was −3.96% and −2.50% and −1.71% and −2.35% and −2.28% and −0.26% and −2.59% and −3.32%, the “Body weight change curve, Mean” value (obese mouse model; Day 2, group mean of 8 mice, puerarin derivative-3) was −3.16% and the “Body weight change curve” value (obese mouse model; Day 2, individual obese mice, puerarin derivative-3) was −5.57% and −1.65% and −3.77% and −2.65% and −4.06% and −0.80% and −2.88% and −3.90%. The “Body weight change curve, Mean” value (obese mouse model; Day 3, group mean of 8 mice, puerarin derivative-3) was −3.01%, the “Body weight change curve” value (obese mouse model; Day 3, individual obese mice, puerarin derivative-3) was −1.49% and −2.50% and −4.68% and −2.65% and −4.36% and −1.34% and −2.88% and −4.19% and the “Body weight change curve, Mean” value (obese mouse model; Day 4, group mean of 8 mice, puerarin derivative-3) was −3.76%. The “Body weight change curve” value (obese mouse model; Day 4, individual obese mice, puerarin derivative-3) was −2.09% and −3.65% and −6.24% and −2.65% and −3.76% and −1.07% and −4.39% and −6.27%, the “Body weight change curve, Mean” value (obese mouse model; Day 5, group mean of 8 mice, puerarin derivative-3) was −4.10% and the “Body weight change curve” value (obese mouse model; Day 5, individual obese mice, puerarin derivative-3) was −3.02% and −3.65% and −6.24% and −2.65% and −4.06% and −1.88% and −5.00% and −6.27%. The “Body weight change curve, Mean” value (obese mouse model; Day 6, group mean of 8 mice, puerarin derivative-3) was −4.33%, the “Body weight change curve” value (obese mouse model; Day 6, individual obese mice, puerarin derivative-3) was −3.33% and −5.13% and −6.24% and −2.65% and −3.46% and −4.41% and −2.88% and −6.57% and the “Body weight change curve, Mean” value (obese mouse model; Day 7, group mean of 8 mice, puerarin derivative-3) was −5.42%. For the same molecule, the “Body weight change curve” value (obese mouse model; Day 7, individual obese mice, puerarin derivative-3) was −5.24% and −6.65% and −7.51% and −3.26% and −3.76% and −4.13% and −5.93% and −6.88%, the “Blood lipid level, Mean” value (obese mouse model; [1]) was 1.2750 mM and the “Jejunal TG level, Mean” value (obese mouse model; [1]) was 1.2900 μmol/mg/protein. The Blood lipid level (obese mouse model; puerarin derivative-3 group) was 1.62 mM and 1.06 mM (2×) and 1.69 mM and 1.23 mM and 1.07 mM and 1.29 mM and 1.18 mM, the “Jejunal TG level” value (obese mouse model; puerarin derivative-3 group) was 1.29 μmol/mg/protein and 1.48 μmol/mg/protein (2×) and 1.36 μmol/mg/protein and 1.27 μmol/mg/protein and 1.53 μmol/mg/protein and 1.06 μmol/mg/protein and 0.85 μmol/mg/protein and the “Effect on TG (lipid) absorption in small intestine” value (from here on “Effect on TG (lipid) absorption”) (obese mouse model) was “inhibiting the small intestinal lipid absorption”. For the same molecule, the “Effect on blood lipid level” value (obese mouse model) was “reducing blood lipid” and the “Effect on body weight of the obese mouse” value (obese mouse model) was “reducing blood lipid and body weight”.
For `OCC1OC(c2c(O)ccc3c2OC=C(c2ccc(O)cc2)C3O)C(O)C(O)C1O` (centres unmarked) [Derivative-1], the “Body weight change percentage, Mean” value (obese mouse model; Day 0, group mean of 10 mice) was 0.00%, the “Body weight change percentage” value (obese mouse model; Day 0, individual obese mice) was 0.00% and the “Body weight change percentage, Mean” value (obese mouse model; Day 1, group mean of 10 mice) was −1.88%. The “Body weight change percentage” value (obese mouse model; Day 1, individual obese mice) was −0.25% and −2.34% and −2.27% and −3.30% and −2.93% and 0.00% and −2.45% and 0.28% and −2.89% and −2.63%, the “Body weight change percentage, Mean” value (obese mouse model; Day 2, group mean of 10 mice) was −2.10% and the “Body weight change percentage” value (obese mouse model; Day 2, individual obese mice) was −0.74% and −1.86% and −2.56% and −3.79% and −4.32% and −0.26% and −2.20% and 0.00% and −2.62% and −2.63%. The “Body weight change percentage, Mean” value (obese mouse model; Day 3, group mean of 10 mice) was −2.96%, the “Body weight change percentage” value (obese mouse model; Day 3, individual obese mice) was −1.24% and −3.06% and −2.56% and −4.04% and −4.32% and −1.55% and −2.45% and −1.14% and −4.53% and −4.77% and the “Body weight change percentage, Mean” value (obese mouse model; Day 4, group mean of 10 mice) was −3.71%. The “Body weight change percentage” value (obese mouse model; Day 4, individual obese mice) was −0.99% and −3.79% and −3.73% and −6.05% and −4.88% and −3.15% and −3.46% and −2.30% and −4.26% and −4.46%, the “Body weight change percentage, Mean” value (obese mouse model; Day 5, group mean of 10 mice) was −3.61% and the “Body weight change percentage” value (obese mouse model; Day 5, individual obese mice) was −1.74% and −3.55% and −4.33% and −6.05% and −3.48% and −2.08% and −2.95% and −3.79% and −3.70% and −4.46%. The “Body weight change percentage, Mean” value (obese mouse model; Day 6, group mean of 10 mice) was −3.95%, the “Body weight change percentage” value (obese mouse model; Day 6, individual obese mice) was −4.08% and −3.06% and −2.56% and −6.31% and −5.17% and −2.35% and −3.21% and −2.60% and −5.09% and −5.08% and the “Body weight change percentage, Mean” value (obese mouse model; Day 7, group mean of 10 mice) was −4.08%. The “Body weight change percentage” value (obese mouse model; Day 7, individual obese mice) was −3.81% and −2.10% and −5.25% and −6.56% and −6.62% and −2.35% and −2.20% and −3.79% and −4.26% and −3.84%, the “Effect on TG (lipid) absorption” value (obese mouse model) was “inhibit the TG absorption in small intestine” and the “Effect on blood lipid level” value (obese mouse model) was “effectively reduce blood lipid level”. For the same molecule, the “Effect on body weight of the obese mouse” value (obese mouse model) was “significantly reduce the body weight”.
With `C[N+]1([O-])CCN(C2=Nc3cc(Cl)ccc3Nc3ccccc32)CC1` [CNO, clozapine N-oxide] the Blood lipid level (neurons in the DMV) was 0.7414 mM and 0.9111 mM and 0.6521 mM and 0.4645 mM and 0.8754 mM and 0.6342 mM and 0.7146 mM, the Blood lipid level (neurons in the DMV; mean) was 0.7169 mM and the “Body weight curve change percentage” value (neurons in the DMV; Inhibition group (hM4D(Gi) virus in DMV, CNO 1.0 mg/kg BW i.p. daily), Day 0 baseline) was 0.00%.
`Cc1ccc(-c2coc3c(C4OC(CO)C(O)C(O)C4O)c(O)ccc3c2=O)cc1` (centres unmarked) [puerarin derivative-2] was tested, and the “Body weight change curve, Mean” value (obese mouse model; Day 0, group mean of 10 mice, puerarin derivative-2) was 0.00%, the “Body weight change curve” value (obese mouse model; Day 0, individual obese mice, puerarin derivative-2) was 0.00% and the “Body weight change curve, Mean” value (obese mouse model; Day 1, group mean of 10 mice, puerarin derivative-2) was −1.67%. For the same molecule, the “Body weight change curve” value (obese mouse model; Day 1, individual obese mice, puerarin derivative-2) was −2.39% and −0.56% and −1.13% and −2.22% and 0.90% and −2.19% and −0.28% and −2.70% and −2.55% and −3.57%, the “Body weight change curve, Mean” value (obese mouse model; Day 2, group mean of 10 mice, puerarin derivative-2) was −2.33% and the “Body weight change curve” value (obese mouse model; Day 2, individual obese mice, puerarin derivative-2) was −2.74% and −2.26% and −1.99% and −4.21% and 0.60% and −2.75% and −0.84% and −2.15% and −2.88% and −4.10%. For the same molecule, the “Body weight change curve, Mean” value (obese mouse model; Day 3, group mean of 10 mice, puerarin derivative-2) was −2.88%, the “Body weight change curve” value (obese mouse model; Day 3, individual obese mice, puerarin derivative-2) was −2.74% and −3.43% and −3.16% and −4.55% and 0.00% and −2.75% and −1.41% and −3.55% and −2.88% and −4.37% and the “Body weight change curve, Mean” value (obese mouse model; Day 4, group mean of 10 mice, puerarin derivative-2) was −3.46%. For the same molecule, the “Body weight change curve” value (obese mouse model; Day 4, individual obese mice, puerarin derivative-2) was −2.74% and −3.73% and −3.16% and −3.87% and −0.91% and −3.89% and −1.13% and −4.40% and −4.21% and −6.57%, the “Body weight change curve, Mean” value (obese mouse model; Day 5, group mean of 10 mice, puerarin derivative-2) was −3.68% and the “Body weight change curve” value (obese mouse model; Day 5, individual obese mice, puerarin derivative-2) was −2.74% and −4.03% and −3.76% and −4.21% and −0.61% and −3.89% and −1.99% and −4.11% and −4.89% and −6.57%. The “Body weight change curve, Mean” value (obese mouse model; Day 6, group mean of 10 mice, puerarin derivative-2) was −3.68%, the “Body weight change curve” value (obese mouse model; Day 6, individual obese mice, puerarin derivative-2) was −2.74% and −4.03% and −3.16% and −3.54% and −0.91% and −4.47% and −4.67% and −3.55% and −2.88% and −6.85% and the “Body weight change curve, Mean” value (obese mouse model; Day 7, group mean of 10 mice, puerarin derivative-2) was −3.98%. For the same molecule, the “Body weight change curve” value (obese mouse model; Day 7, individual obese mice, puerarin derivative-2) was −3.45% and −2.26% and −2.57% and −3.87% and −2.15% and −5.66% and −4.37% and −2.43% and −5.93% and −7.13%, the “Blood lipid level, Mean” value (obese mouse model; [2]) was 1.0006 mM and the “Jejunal TG level, Mean” value (obese mouse model; [2]) was 1.3072 μmol/mg/protein. The Blood lipid level (obese mouse model; puerarin derivative-2 group) was 1.0874 mM and 1.0496 mM and 0.6903 mM and 0.8792 mM and 0.6729 mM and 1.3428 mM and 0.9551 mM and 1.1631 mM and 1.1347 mM and 1.0307 mM, the “Jejunal TG level” value (obese mouse model; puerarin derivative-2 group) was 1.7043 μmol/mg/protein and 1.5325 μmol/mg/protein and 1.5551 μmol/mg/protein and 1.3572 μmol/mg/protein and 1.1252 μmol/mg/protein and 1.1433 μmol/mg/protein and 1.3121 μmol/mg/protein and 1.0924 μmol/mg/protein and 1.2506 μmol/mg/protein and 0.9988 μmol/mg/protein and the “Effect on TG (lipid) absorption” value (obese mouse model) was “inhibiting the small intestinal lipid absorption”. The “Effect on blood lipid level” value (obese mouse model) was “reducing blood lipid” and the “Effect on body weight of the obese mouse” value (obese mouse model) was “reducing blood lipid and body weight”.
